From ChEMBL document CHEMBL4196124, “Reverse Hydroxamate Inhibitors of Bone Morphogenetic Protein 1” (ACS Med Chem Lett, 2018)

Tests used:
Homo sapiens [1] = species on record: Homo sapiens; assay: Selectivity ratio of IC50 for recombinant human C-terminal MMP3 (83 to 255 residues) catalytic domain expressed in Escherichia coli to IC50 for recombinant human N-terminal 6His/flag-tagged BMP1 (121 to 721 residues) expressed in CHO cells
Homo sapiens [2] = species on record: Homo sapiens; assay: Selectivity ratio of IC50 for MMP8 (unknown origin) to IC50 for recombinant human N-terminal 6His/flag-tagged BMP1 (121 to 721 residues) expressed in CHO cells; format: cell-based
Homo sapiens [3] = species on record: Homo sapiens; assay: Selectivity ratio of IC50 for recombinant human C-terminal MMP13 (85 to 255 residues) catalytic domain expressed in Escherichia coli to IC50 for recombinant human N-terminal 6His/flag-tagged BMP1 (121 to 721 residues) expressed in CHO cells
Rattus norvegicus = assay: Dose normalized AUC in po dosed rat; format: ADME, organism-based; conditions: in vivo
Homo sapiens [4] = species on record: Homo sapiens; assay: Selectivity ratio of IC50 for recombinant human His-tagged TACE (1 to 671 residues) expressed in insect cells to IC50 for recombinant human N-terminal 6His/flag-tagged BMP1 (121 to 721 residues) expressed in CHO cells
Homo sapiens [5] = species on record: Homo sapiens; assay: Selectivity ratio of IC50 for recombinant human C-terminal MMP2 (81 to 423 residues) catalytic domain expressed in Escherichia coli to IC50 for recombinant human N-terminal 6His/flag-tagged BMP1 (121 to 721 residues) expressed in CHO cells
Homo sapiens [6] = species on record: Homo sapiens; assay: Selectivity ratio of IC50 for ACE2 (unknown origin) to IC50 for recombinant human N-terminal 6His/flag-tagged BMP1 (121 to 721 residues) expressed in CHO cells; format: cell-based
Homo sapiens [7] = species on record: Homo sapiens; assay: Selectivity ratio of IC50 for recombinant human C-terminal MMP1 (81 to 249 residues) catalytic domain expressed in Escherichia coli to IC50 for recombinant human N-terminal 6His/flag-tagged BMP1 (121 to 721 residues) expressed in CHO cells
Homo sapiens [8] = species on record: Homo sapiens; assay: Selectivity ratio of IC50 for ADAM10 (unknown origin) to IC50 for recombinant human N-terminal 6His/flag-tagged BMP1 (121 to 721 residues) expressed in CHO cells; format: cell-based
Cytochrome P450 3A4 = Cytochrome P450 3A4 (Homo sapiens, UniProt P08684); assay: Time dependent inhibition of CYP3A4 (unknown origin) at 33 uM measured over 15 mins relative to control; format: ADME; conditions: 0.25 h
Tolloid-like protein 2 = molecular target: T1, Tolloid-like protein 2 (Homo sapiens, UniProt Q9Y6L7); assay: Inhibition of recombinant human N-terminal 6His-tagged TLL2 (26 to 1015 residues) expressed in CHO cells using ((5-FAM)-ELIDQYDVQRDDSSDGSLED-K(5,6 TAMRA)-CONH2) as substrate preincubated for 10 mins followed by substrate addition measured after 60 mins
T1 sequence (Q9Y6L7 whole entry): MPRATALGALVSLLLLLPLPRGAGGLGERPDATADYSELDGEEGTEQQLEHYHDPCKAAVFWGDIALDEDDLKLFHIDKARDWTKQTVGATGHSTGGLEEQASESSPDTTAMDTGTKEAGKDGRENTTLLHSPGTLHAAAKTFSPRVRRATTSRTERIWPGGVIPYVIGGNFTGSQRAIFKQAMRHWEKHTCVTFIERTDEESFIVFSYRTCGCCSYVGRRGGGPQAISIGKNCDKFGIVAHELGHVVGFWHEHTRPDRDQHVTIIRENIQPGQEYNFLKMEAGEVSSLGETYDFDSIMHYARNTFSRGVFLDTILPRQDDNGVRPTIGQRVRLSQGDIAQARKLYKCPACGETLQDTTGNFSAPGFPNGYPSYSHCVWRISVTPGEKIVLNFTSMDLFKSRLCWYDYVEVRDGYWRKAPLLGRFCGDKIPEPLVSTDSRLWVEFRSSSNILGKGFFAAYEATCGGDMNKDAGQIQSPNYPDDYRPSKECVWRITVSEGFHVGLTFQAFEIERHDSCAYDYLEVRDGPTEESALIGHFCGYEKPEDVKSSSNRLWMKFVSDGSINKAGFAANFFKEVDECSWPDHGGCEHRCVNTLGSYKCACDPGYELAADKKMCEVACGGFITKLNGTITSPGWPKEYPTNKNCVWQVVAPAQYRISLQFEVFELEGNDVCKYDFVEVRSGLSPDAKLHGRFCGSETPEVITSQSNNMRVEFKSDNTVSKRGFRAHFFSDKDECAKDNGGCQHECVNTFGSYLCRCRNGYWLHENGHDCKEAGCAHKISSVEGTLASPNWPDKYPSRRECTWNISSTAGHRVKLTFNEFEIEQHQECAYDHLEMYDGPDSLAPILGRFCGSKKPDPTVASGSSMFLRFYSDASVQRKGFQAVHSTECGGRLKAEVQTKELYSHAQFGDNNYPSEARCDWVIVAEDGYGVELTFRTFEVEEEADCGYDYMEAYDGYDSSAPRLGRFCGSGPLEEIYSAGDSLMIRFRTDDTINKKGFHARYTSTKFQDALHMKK

Homo sapiens [9] = species on record: Homo sapiens; assay: Selectivity ratio of IC50 for recombinant human C-terminal MMP14 (Tyr92 to Arg278 residues) catalytic domain expressed in Escherichia coli to IC50 for recombinant human N-terminal 6His/flag-tagged BMP1 (121 to 721 residues) expressed in CHO cells
Homo sapiens [10] = species on record: Homo sapiens; assay: Selectivity ratio of IC50 for ADAM9 (unknown origin) to IC50 for recombinant human N-terminal 6His/flag-tagged BMP1 (121 to 721 residues) expressed in CHO cells; format: cell-based
[11] = molecular target: Macrophage metalloelastase (Homo sapiens, UniProt P39900); assay: Inhibition of MMP12 (unknown origin)
Homo sapiens [12] = species on record: Homo sapiens; assay: Selectivity ratio of IC50 for recombinant human C-terminal MMP9 (88 to 438 residues) catalytic domain expressed in Escherichia coli to IC50 for recombinant human N-terminal 6His/flag-tagged BMP1 (121 to 721 residues) expressed in CHO cells
Homo sapiens [13] = species on record: Homo sapiens; assay: Selectivity ratio of IC50 for recombinant human C-terminal MMP7 (78 to 250 residues) catalytic domain expressed in Escherichia coli to IC50 for recombinant human N-terminal 6His/flag-tagged BMP1 (121 to 721 residues) expressed in CHO cells
Homo sapiens [14] = species on record: Homo sapiens; assay: Selectivity ratio of IC50 for human ACE1 to IC50 for recombinant human N-terminal 6His/flag-tagged BMP1 (121 to 721 residues) expressed in CHO cells; format: cell-based
Homo sapiens [15] = species on record: Homo sapiens; assay: Selectivity ratio of IC50 for MMP10 (unknown origin) to IC50 for recombinant human N-terminal 6His/flag-tagged BMP1 (121 to 721 residues) expressed in CHO cells; format: cell-based

Macrophage metalloelastase, sequence (P39900 whole entry, the tested form may be a part): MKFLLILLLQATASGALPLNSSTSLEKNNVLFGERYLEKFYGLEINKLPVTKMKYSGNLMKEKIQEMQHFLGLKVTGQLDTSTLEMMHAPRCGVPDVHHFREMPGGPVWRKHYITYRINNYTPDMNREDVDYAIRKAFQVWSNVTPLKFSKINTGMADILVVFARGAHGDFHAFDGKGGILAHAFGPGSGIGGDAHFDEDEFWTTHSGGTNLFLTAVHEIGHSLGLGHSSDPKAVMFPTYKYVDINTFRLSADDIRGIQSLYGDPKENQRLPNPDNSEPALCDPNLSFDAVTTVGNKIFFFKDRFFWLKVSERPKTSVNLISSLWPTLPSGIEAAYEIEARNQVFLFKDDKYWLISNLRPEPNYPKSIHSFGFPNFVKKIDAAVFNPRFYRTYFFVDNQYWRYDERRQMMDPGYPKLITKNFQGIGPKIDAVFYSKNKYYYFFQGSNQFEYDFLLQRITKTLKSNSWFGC
Cytochrome P450 3A4, sequence (P08684 whole entry, the tested form may be a part): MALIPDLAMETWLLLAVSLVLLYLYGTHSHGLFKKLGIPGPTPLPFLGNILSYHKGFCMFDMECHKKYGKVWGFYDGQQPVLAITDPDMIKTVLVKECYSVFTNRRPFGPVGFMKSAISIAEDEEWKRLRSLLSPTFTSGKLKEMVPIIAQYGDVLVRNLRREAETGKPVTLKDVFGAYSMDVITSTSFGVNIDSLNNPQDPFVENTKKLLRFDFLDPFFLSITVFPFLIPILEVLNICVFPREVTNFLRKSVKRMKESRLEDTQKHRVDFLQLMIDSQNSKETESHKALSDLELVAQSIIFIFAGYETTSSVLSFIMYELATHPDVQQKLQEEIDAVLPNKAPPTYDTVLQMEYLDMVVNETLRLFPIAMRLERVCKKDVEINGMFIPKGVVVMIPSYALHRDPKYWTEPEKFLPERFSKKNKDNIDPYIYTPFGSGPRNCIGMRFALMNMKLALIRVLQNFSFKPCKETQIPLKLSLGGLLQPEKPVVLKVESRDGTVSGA

`CCCCC[C@@H](C(=O)NCNC(=O)c1ccc(-c2ccccc2)o1)[C@@H](CC)N(O)C=O` was tested, and the Ratio IC50 (Homo sapiens [1]) was greater than 30, the Ratio IC50 (Homo sapiens [2]) was greater than 30 and the Ratio IC50 (Homo sapiens [3]) was greater than 30. For the same compound, the AUC/dose (Rattus norvegicus) was 1.6 kg·h/L, the Ratio IC50 (Homo sapiens [4]) was greater than 30 and the Ratio IC50 (Homo sapiens [5]) was greater than 30. It also gave a Ratio IC50 (Homo sapiens [6]) greater than 30, a Ratio IC50 (Homo sapiens [7]) greater than 30 and a Ratio IC50 (Homo sapiens [8]) greater than 30. The “fold change (FC)” value (Cytochrome P450 3A4) was 4.3, the IC50 (Tolloid-like protein 2) was 0.16 µM and the Ratio IC50 (Homo sapiens [9]) was greater than 30. For the same compound, the Ratio IC50 (Homo sapiens [10]) was greater than 30, the IC50 [11] was 10 µM and the Ratio IC50 (Homo sapiens [12]) was greater than 30. The Ratio IC50 (Homo sapiens [13]) was greater than 30, the Ratio IC50 (Homo sapiens [14]) was greater than 30 and the Ratio IC50 (Homo sapiens [15]) was greater than 30.
